The values that follow come from patent US9758492B2, “IDO inhibitors” (Bristol-Myers Squibb Company, priority 2013, dated 2017).

The structures appear in SMILES notation.

Assay [1] concerns the target IDO (Homo sapiens, UniProt P14902). Nature of the assay: LLE_IDO_ABS_DR (IDO assay).
The target of assay [2] is T1, Human IDO1 (Homo sapiens, UniProt P14902).
T1 construct: expressed in transfected cells; host or cells: HEK293
Nature of the assay: IDO Kynurenine Assay with Human IDO1/HEK293 Cells. It is filed as cell-based. Conditions: read-out: HEK human IDO-1 (IC50). In outline: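 HEK293 cells stably expressing human IDO1, in phenol red-free RPMI/10% FBS, exposed to compound for 20 h at 37 °C. Stopped with 0.2% TCA (50 °C, 30 min); kynurenine in supernatant detected with Ehrlich reagent, absorbance 490 nm.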

IDO, sequence (P14902 whole entry): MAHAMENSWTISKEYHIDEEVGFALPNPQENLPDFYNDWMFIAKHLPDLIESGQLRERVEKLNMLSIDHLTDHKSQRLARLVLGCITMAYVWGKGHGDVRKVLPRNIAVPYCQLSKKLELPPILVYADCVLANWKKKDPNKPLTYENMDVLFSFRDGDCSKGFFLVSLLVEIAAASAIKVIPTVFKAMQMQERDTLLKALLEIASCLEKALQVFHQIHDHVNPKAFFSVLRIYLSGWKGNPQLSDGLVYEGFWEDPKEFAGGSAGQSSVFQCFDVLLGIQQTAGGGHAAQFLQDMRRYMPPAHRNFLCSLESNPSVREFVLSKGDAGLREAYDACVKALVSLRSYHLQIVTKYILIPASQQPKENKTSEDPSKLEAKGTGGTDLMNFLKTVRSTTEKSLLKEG
T1 sequence (P14902 whole entry): as above

As for `Cc1ccc(NC(=O)Nc2cc(-c3ccc(Cl)cc3C(=O)O)ccc2N(CC(C)C)CC(C)C)cc1` [Example 127, 4-chloro-4′-(diisobutylamino)-3′-(3-p-tolylureido) biphenyl-2-carboxylic acid], the values for the 50% inhibitory concentration (IC50) in assay [1] and in assay [2] were 130 nM and 80 nM, respectively.
The matching figures for `CC(C)CN(Cc1ccccc1)c1ccc(-c2ccccc2-c2nnn[nH]2)cc1NC(=O)Nc1ccc(OC(F)(F)F)cc1` [Example 290, 1-(4-(Benzyl(isobutyl)amino)-2′-(1H-tetrazol-5-yl)-[1,1′-biphenyl]-3-yl)-3-(4-(trifluoromethoxy)phenyl)urea]: 30 nM and 50 nM.
For `Cc1ccc(NC(=O)Nc2cc(-c3cc(F)ccc3C(=O)O)c(F)cc2N(CC(C)C)C2CCCCC2)cc1` [Example 231] the same measures were 2.73 nM and 2.13 nM.
For `Cc1ccc(NC(=O)Nc2cc(-c3ccccc3C(=O)O)ccc2N(CC(C)C)C2CCOCC2)cc1` [Example 378] the same measures were 60 nM and 70 nM.
Take `O=C(Nc1ccc(C2CC2)c(F)c1)Nc1cc(-c2ccccc2-c2nnn[nH]2)ccc1N(CCC(F)(F)F)Cc1ccc(F)cc1C(F)(F)F` [Example 352, 1-(4-cyclopropyl-3-fluorophenyl)-3-(4-((4-fluoro-2-(trifluoro-methyl)benzyl) (3,3,3-trifluoropropyl)amino)-2′-(1H-tetrazol-5-yl)-[1,1′-biphenyl]-3-yl)urea]: the IC50 in assay [1] is 90 nM; in assay [2] it was 220 nM.
Take `Cc1ccc(NC(=O)Nc2cc(-c3ccccc3-c3nnn[nH]3)ccc2N(CCC(F)(F)F)Cc2cccc(Cl)c2)cc1` [Example 13, 1-(4-((3-Chlorobenzyl)(3,3,3-trifluoropropyl)amino)-2′-(1H-tetrazol-5-yl)-[1,1′-biphenyl]-3-yl)-3-(p-tolyl)urea]: the 50% inhibitory concentration (IC50) in assay [1] was 30 nM; in assay [2], 60 nM.
For `C=CC(c1ccccc1)c1cc(-c2ccccc2-c2nnn[nH]2)cc(NC(=O)Nc2ccc(C)cc2)c1NCC(C)C` (stereo not drawn) [Example 358, 1-(4-(isobutylamino)-5-(1-phenylallyl)-2′-(1H-tetrazol-5-yl)-[1,1′-biphenyl]-3-yl)-3-(p-tolyl)urea], the IC50 in assay [1] was 20 nM; in assay [2] it was 350 nM.
Turning to `O=C(Nc1ccc(C2CC2)cc1)Nc1cc(-c2ccccc2-c2nnn[nH]2)ccc1N(CCCC(F)(F)F)Cc1ccc(Cl)cc1` [Example 349, 1-(4-((4-chlorobenzyl)(4,4,4-trifluorobutyl)amino)-2′-(1H-tetrazol-5-yl)-[1,1′-biphenyl]-3-yl)-3-(4-cyclopropylphenyl)urea], the IC50 amounted to 7.49 nM in assay [1] and 130 nM in assay [2].
For `CC(C)CN(CC1CC(F)(F)C1)c1ccc(-c2ccccc2-c2nnn[nH]2)cc1NC(=O)Nc1cc(C(C)C)no1` [Example 384], the IC50 in assay [1] is 1640 nM; in assay [2], 1890 nM.
For `O=C(Nc1ccc(F)cc1F)Nc1cc(-c2ccccc2-c2nnn[nH]2)ccc1N(CCc1ccccc1)CCC(F)(F)F` [Example 332, 1-(2,4-difluorophenyl)-3-(4-(phenethyl(3,3,3-trifluoropropyl)amino)-2′-(1H-tetrazol-5-yl)-[1,1′-biphenyl]-3-yl) urea] the same measures were 80 nM and 110 nM.
For `Cc1ccc(NC(=O)Nc2cc(-c3ccccc3-c3nnn[nH]3)ccc2N(CCC(F)(F)F)Cc2ccccc2Cl)cc1` [Example 19, 1-(4-((2-Chlorobenzyl)(3,3,3-trifluoropropyl)amino)-2′-(1H-tetrazol-5-yl)-[1,1′-biphenyl]-3-yl)-3-(p-tolyl)urea] the same measures were 20 nM and 40 nM.
For the molecule `Cc1ccc(NC(=O)Nc2cc(-c3cccc(F)c3C(=O)O)ccc2N(CC(C)C)CC(C)C)cc1` [Example 150, 4′-(diisobutylamino)-3-fluoro-3′-(3-p-tolylureido)biphenyl-2-carboxylic acid], the 50% inhibitory concentration (IC50) in assay [1] was 40 nM; in assay [2] it was 60 nM.
As for `O=C(Nc1ccc(OC(F)(F)F)cc1)Nc1cc(-c2ccccc2-c2nnn[nH]2)ccc1N(CCC(F)(F)F)Cc1ccc(OC(F)(F)F)cc1` [Example 503, 1-(2′-(1H-Tetrazol-5-yl)-4-((4-(trifluoromethoxy)benzyl)(3,3,3-trifluoropropyl)amino)-[1,1′-biphenyl]-3-yl)-3-(4-(trifluoromethoxy)phenyl)urea], the results for the half-maximal inhibitory concentration (IC50) in assay [1] and in assay [2] were 2.24 nM and 10 nM, respectively.
As for `O=C(Nc1ccc(C(F)(F)F)cc1F)Nc1cc(-c2ccccc2-c2nnn[nH]2)ccc1N1CCC(c2ccccc2)C1` (racemic) [Example 370, (±)-1-(2-Fluoro-4-(trifluoromethyl)phenyl)-3-(4-(3-phenylpyrrolidin-1-yl)-2′-(1H-tetrazol-5-yl)-[1,1′-biphenyl]-3-yl)urea], the half-inhibitory concentration (IC50) stood at 50 nM in assay [1] and 70 nM in assay [2].
In the case of `O=C(Nc1ccc(F)cc1F)Nc1cc(-c2ccccc2-c2nnn[nH]2)ccc1N(CCC(F)(F)F)Cc1ccccn1` [Example 344, 1-(2,4-difluorophenyl)-3-(4-((pyridin-2-ylmethyl)(3,3,3-trifluoropropyl)amino)-2′-(1H-tetrazol-5-yl)-[1,1′-biphenyl]-3-yl) urea], the IC50 was 30 nM in assay [1] and 50 nM in assay [2].
For `O=C(Nc1ccc(C2CC2)cc1)Nc1cc(-c2ccccc2-c2nnn[nH]2)ccc1N(CCC(F)(F)F)Cc1ccc(OC(F)(F)F)cc1` [Example 302, 1-(2′-(1H-tetrazol-5-yl)-4-((4-(trifluoromethoxy)benzyl)(3,3,3-trifluoropropyl)amino)-[1,1′-biphenyl]-3-yl)-3-(4-cyclopropylphenyl)urea] the same measures were 3.26 nM and 5.53 nM.
Regarding `Cc1ccc(NC(=O)Nc2cc(-c3ccccc3-c3nnn[nH]3)ccc2N(CCC(F)(F)F)Cc2ccc(OC(F)(F)F)cc2)cc1` [Example 341, 1-(2′-(1H-tetrazol-5-yl)-4-((4-(trifluoromethoxy)benzyl)(3,3,3-trifluoropropyl)amino)-[1,1′-biphenyl]-3-yl)-3-(p-tolyl)urea], the 50% inhibitory concentration (IC50) in assay [1] came out at 1.73 nM; in assay [2], 0.845 nM.
As to `Cc1ccc(NC(=O)Nc2cc(-c3cc(F)ccc3-c3nnn[nH]3)c(F)cc2N(CC(C)C)C2CCCCC2)cc1` [Example 355, 1-(4-(cyclohexyl(isobutyl)amino)-5′,6-difluoro-2′-(1H-tetrazol-5-yl)-[1,1′-biphenyl]-3-yl)-3-(p-tolyl)urea], the figures for the half-inhibitory concentration (IC50) in assay [1] and in assay [2] were 2.37 nM and 3.29 nM, respectively.
Regarding `Cc1ccc(NC(=O)Nc2cc(-c3ccccc3-c3nnn[nH]3)ccc2N(CCC(F)(F)F)Cc2ccc(Cl)cc2)cc1` [Example 16], the values for the half-maximal inhibitory concentration (IC50) in assay [1] and in assay [2] were 10 nM and 20 nM, respectively.
Regarding `Cc1ccc(NC(=O)Nc2cc(-c3cc(F)ccc3C(=O)O)ccc2N2CCCc3ccccc32)cc1` [Example 373, 4′-(3,4-Dihydroquinolin-1(2H)-yl)-5-fluoro-3′-(3-(p-tolyl)ureido)-[1,1′-biphenyl]-2-carboxylic acid], the IC50 amounted to 3340 nM in assay [1] and 4000 nM in assay [2].
For `Cc1ccc(NC(=O)Nc2cc(-c3ccccc3C(=O)O)cc(Cl)c2N(CC(C)C)CC(C)C)cc1` [Example 40, 3′-Chloro-4′-(diisobutylamino)-5′-(3-p-tolylureido)biphenyl-2-carboxylic acid], the values for the IC50 in assay [1] and in assay [2] were 3.79 nM and 10 nM, respectively.
Turning to `Cc1ccc(NC(=O)Nc2cc(-c3ccccc3-c3nnn[nH]3)ccc2N2C[C@@H]3C[C@H]2CN3c2ccc(F)cc2)cc1` [Example 383], the values for the IC50 in assay [1] and in assay [2] were 70 nM and 130 nM, respectively.
For `C=C(C)CN(CC(F)(F)F)c1ccc(-c2cc(F)ccc2C(=O)O)cc1NC(=O)Nc1ccc(C)cc1` [Example 473], the IC50 in assay [1] stood at 70 nM; in assay [2] it was 60 nM.
For `Cc1ccc(NC(=O)Nc2cc(-c3cc(F)ccc3-c3nnn[nH]3)ccc2N(CC(C)C)CC(C)C)cc1` [Example 483] the same measures were 6.12 nM and 7.33 nM.
In the case of `Cc1ccc(NC(=O)Nc2cc(-c3cc(F)ccc3C(=O)O)ccc2N(CC(C)C)CC(C)C)cc1` [Example 126, 4′-(diisobutylamino)-5-fluoro-3′-(3-p-tolylureido)biphenyl-2-carboxylic acid], the IC50 in assay [1] was 20 nM; in assay [2] it was 10 nM.
For the molecule `Cc1ccc(NC(=O)Nc2cc(-c3ccccc3C(=O)O)ccc2N(CC(C)C)C2CCC(F)(F)CC2)cc1` [Example 512, 4′-((4,4-Difluorocyclohexyl)(isobutyl)amino)-3′-(3-(p-tolyl)ureido)-[1,1′-biphenyl]-2-carboxylic acid], the IC50 in assay [1] is 2.88 nM; in assay [2], 50 nM.
Consider `O=C(Nc1ccc(C2CC2)c(F)c1)Nc1cc(-c2ccccc2-c2nnn[nH]2)ccc1N(CCC(F)(F)F)Cc1ccc(OC(F)(F)F)cc1` [Example 353, 1-(2′-(1H-tetrazol-5-yl)-4-((4-(trifluoromethoxy)benzyl)(3,3,3-trifluoro-propyl)amino)-[1,1′-biphenyl]-3-yl)-3-(4-cyclopropyl-3-fluorophenyl)urea], for which the concentration for half-maximal inhibition (IC50) in assay [1] is 5.1 nM; in assay [2], 2.37 nM.
Take `Cc1ccc(NC(=O)Nc2cc(-c3cc(F)ccc3C(=O)O)ccc2N(CC(C)C)CC2CC(F)(F)C2)cc1` [Example 380]: the half-inhibitory concentration (IC50) in assay [1] was determined as 50 nM; in assay [2], 70 nM.
Turning to `O=C(Nc1ccc(C(F)(F)F)cc1F)Nc1cc(-c2ccccc2-c2nnn[nH]2)ccc1N(CCC(F)(F)F)Cc1ccc(OC(F)(F)F)cc1` [Example 301, 1-(2′-(1H-tetrazol-5-yl)-4-((4-(trifluoromethoxy)benzyl)(3,3,3-trifluoropropyl)amino)-[1,1′-biphenyl]-3-yl)-3-(2-fluoro-4-(trifluoromethyl)phenyl)urea], the IC50 in assay [1] came to 2.85 nM; in assay [2] it was 7.87 nM.
As to `Cc1ccc(NC(=O)Nc2cc(-c3ccccc3-c3nnn[nH]3)ccc2N2CCC(c3ccccc3)C2)cc1` (racemic) [Example 367, (±)-1-(4-(3-Phenylpyrrolidin-1-yl)-2′-(1H-tetrazol-5-yl)-[1,1′-biphenyl]-3-yl)-3-(p-tolyl)urea], the IC50 turned out to be 20 nM in assay [1] and 10 nM in assay [2].

By IC50 is commonly meant the concentration that inhibits the measured activity by half.
